Measured values published in publication PMC11317573 (Proceedings of the National Academy of Sciences of the …, 2024).

Molecular target: T1, RdsA (YhiN) (Escherichia coli, UniProt P37631)
T1 sequence (P37631 1-400): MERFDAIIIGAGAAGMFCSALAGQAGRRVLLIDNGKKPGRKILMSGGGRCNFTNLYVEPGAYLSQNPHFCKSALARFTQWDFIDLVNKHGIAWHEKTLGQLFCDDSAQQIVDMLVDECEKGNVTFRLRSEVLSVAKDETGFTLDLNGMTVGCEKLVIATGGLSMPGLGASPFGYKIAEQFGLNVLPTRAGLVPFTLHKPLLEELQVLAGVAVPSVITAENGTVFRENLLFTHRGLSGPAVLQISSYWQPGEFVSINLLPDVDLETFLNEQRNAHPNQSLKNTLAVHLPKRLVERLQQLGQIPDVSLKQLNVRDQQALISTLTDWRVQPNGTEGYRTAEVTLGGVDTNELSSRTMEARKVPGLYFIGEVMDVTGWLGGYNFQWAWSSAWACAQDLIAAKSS
Assay: UV/visible spectrum of purified protein
Type: binding
Settings: as purified; noncovalent

holoprotein fraction (oxidized flavin): 61%
Structure (SMILES): Cc1cc2nc3c(=O)[nH]c(=O)nc-3n(C[C@H](O)[C@H](O)[C@H](O)COP(=O)(O)OP(=O)(O)OC[C@H]3O[C@@H](n4cnc5c(N)ncnc54)[C@H](O)[C@@H]3O)c2cc1C [FAD]
